The record followed here is US20230146675A1, “PYRIMIDO[5,4-d]PYRIMIDINE DERIVATIVES AS ENT INHIBITORS FOR THE TREATMENT OF CANCERS, AND COMBINATION THEREOF WITH ADENOSINE RECEPTOR ANTAGONISTS” (ITEOS BELGIUM SA, priority 2020, published 2023).

A value given as a limit tells only on which side of the number the result lay.

The assay concerns the target T1, human ENT1 (Homo sapiens, UniProt Q99808).
T1 sequence (Q99808 1-456): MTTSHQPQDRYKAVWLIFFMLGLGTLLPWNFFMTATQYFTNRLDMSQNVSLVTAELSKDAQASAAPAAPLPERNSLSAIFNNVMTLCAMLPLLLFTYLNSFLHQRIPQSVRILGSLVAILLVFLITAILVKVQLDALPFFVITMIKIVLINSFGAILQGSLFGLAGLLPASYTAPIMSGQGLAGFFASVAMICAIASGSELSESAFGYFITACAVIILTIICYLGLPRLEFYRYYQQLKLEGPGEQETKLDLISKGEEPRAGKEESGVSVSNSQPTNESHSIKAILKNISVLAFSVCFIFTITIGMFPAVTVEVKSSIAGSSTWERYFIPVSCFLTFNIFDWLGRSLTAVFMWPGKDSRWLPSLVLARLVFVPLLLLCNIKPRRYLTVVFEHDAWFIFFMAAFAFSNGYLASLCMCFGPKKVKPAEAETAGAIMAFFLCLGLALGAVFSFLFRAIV
As to the kind of experiment: ENT1 binding assay (competition with Sahenta-DY647 on JAR cells). The arrangement: JAR cells expressing ENT1 were bought from ATCC; host or cells: JAR cells. The following applies: binned IC50. The essentials: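 JAR cells were incubated with test compounds and the fluorescent ligand Sahenta-DY647 in competition. Plates were washed twice by centrifugation (4 min, 400 rcf, 4 °C). Binding potency was derived from the final fluorescence.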
Regarding `COCCN(CCOC)c1nc(N2CCC(OC)CC2)c2nc(N(CCOC)CCOC)nc(N(C)CC(C)C)c2n1` [Compound 168, N4-isobutyl-N2,N2,N6,N6-tetrakis(2-methoxyethyl)-8-(4-methoxypiperidin-1-yl)-N4-methylpyrimido[5,4-d]pyrimidine-2,4,6-triamine], the IC50 was < 100 nM. The result for `COCCN(CCOC)c1nc(N2CCC(OC)CC2)c2nc(N(CCOC)CCOC)nc(N(C)Cc3ccc(OC)c(OC)c3)c2n1` [Compound 169, N4-(3,4-dimethoxybenzyl)-N2,N2,N6,N6-tetrakis(2-methoxyethyl)-8-(4-methoxypiperidin-1-yl)-N4-methylpyrimido[5,4-d]pyrimidine-2,4,6-triamine] reads < 100 nM; that for `COCCN(CCOC)c1nc(N2CCC(OC)CC2)c2nc(N(CCOC)CCOC)nc(NCc3ccc(OC)c(OC)c3)c2n1` [Compound 170, N4-(3,4-dimethoxybenzyl)-N2,N2,N6,N6-tetrakis(2-methoxyethyl)-8-(4-methoxypiperidin-1-yl)pyrimido[5,4-d]pyrimidine-2,4,6-triamine], < 100 nM. As for `COCCN(CCOC)c1nc(N2CCC(OC)CC2)c2nc(N(CCOC)CCOCCN3C(=O)c4ccccc4C3=O)nc(N3CCC(OC)CC3)c2n1` [Compound 172, 2-(2-(2-((6-(bis(2-methoxyethyl)amino)-4,8-bis(4-methoxypiperidin-1-yl)pyrimido[5,4-d]pyrimidin-2-yl)(2-methoxyethyl)amino)ethoxy)ethyl)isoindoline-1,3-dione], the figure is 100 to 500 nM; as for `COCCN(CCOC)c1nc(N2CCC(OC)CC2)c2nc(N(CCOC)CCOC)nc(NCCCO)c2n1` [Compound 175, 3-((2,6-bis(bis(2-methoxyethyl)amino)-8-(4-methoxypiperidin-1-yl)pyrimido[5,4-d]pyrimidin-4-yl)amino)propan-1-ol], 500 to 1000 nM. The result for `COCCN(CCOC)c1nc(N2CCC(OC)CC2)c2nc(N(CCOC)CCOC)nc(NCCCn3ccnc3)c2n1` [Compound 176, N4-(3-(1H-imidazol-1-yl)propyl)-N2,N2,N6,N6-tetrakis(2-methoxyethyl)-8-(4-methoxypiperidin-1-yl)pyrimido[5,4-d]pyrimidine-2,4,6-triamine] reads 500 to 1000 nM; that for `COCCN(CCOC)c1nc(N2CCC(OC)CC2)c2nc(N(CCOC)CCOC)nc(NCCCc3ccccn3)c2n1` [Compound 177, N2,N2,N6,N6-tetrakis(2-methoxyethyl)-8-(4-methoxypiperidin-1-yl)-N4-(3-(pyridin-2-yl)propyl)pyrimido[5,4-d]pyrimidine-2,4,6-triamine], 500 to 1000 nM.

`COCCN(CCOC)c1nc(N2CCC(OC)CC2)c2nc(N(CCOC)CCOC)nc(NCCC(C)(C)O)c2n1` [Compound 178, 4-((2,6-bis(bis(2-methoxyethyl)amino)-8-(4-methoxypiperidin-1-yl)pyrimido[5,4-d]pyrimidin-4-yl)amino)-2-methylbutan-2-ol] registered a 50% inhibitory concentration (IC50) of 500 to 1000 nM. As for `COCCN(CCOC)c1nc(N2CCC(OC)CC2)c2nc(N(CCOC)CCOC)nc(NCCCCC#N)c2n1` [Compound 179, 5-((2,6-bis(bis(2-methoxyethyl)amino)-8-(4-methoxypiperidin-1-yl)pyrimido[5,4-d]pyrimidin-4-yl)amino)pentanenitrile], the figure is 100 to 500 nM; as for `COCCN(CCOC)c1nc(N2CCC(OC)CC2)c2nc(N(CCOC)CCOC)nc(NCCCNS(C)(=O)=O)c2n1` [Compound 180, N-(3-((2,6-bis(bis(2-methoxyethyl)amino)-8-(4-methoxypiperidin-1-yl)pyrimido[5,4-d]pyrimidin-4-yl)amino)propyl)methanesulfonamide], 500 to 1000 nM; as for `COCCCCNc1nc(N(CCOC)CCOC)nc2c(N3CCC(OC)CC3)nc(N(CCOC)CCOC)nc12` [Compound 181, N4-(4-methoxybutyl)-N2,N2,N6,N6-tetrakis(2-methoxyethyl)-8-(4-methoxypiperidin-1-yl)pyrimido[5,4-d]pyrimidine-2,4,6-triamine], 500 to 1000 nM. Consider `COCCN(CCOC)c1nc(N2CCC(OC)CC2)c2nc(N(CCOC)CCOC)nc(NCCCCCC#N)c2n1` [Compound 182, 6-((2,6-bis(bis(2-methoxyethyl)amino)-8-(4-methoxypiperidin-1-yl)pyrimido[5,4-d]pyrimidin-4-yl)amino)hexanenitrile], for which the concentration for half-maximal inhibition (IC50) was in the range of 500 to 1000 nM.

`COCCN(CCOC)c1nc(N2CCC(OC)CC2)c2nc(N(CCOC)Cc3ccc(OC)c(OC)c3OC)nc(N3CCC(OC)CC3)c2n1` [Compound 183, N2,N2,N6-tris(2-methoxyethyl)-4,8-bis(4-methoxypiperidin-1-yl)-N6-(2,3,4-trimethoxybenzyl)pyrimido[5,4-d]pyrimidine-2,6-diamine]: the concentration for half-maximal inhibition (IC50) was < 100 nM. `COCCN(CCOC)c1nc(N2CCC(OC)CC2)c2nc(N(CCO)Cc3ccc(OC)c(OC)c3OC)nc(N3CCC(OC)CC3)c2n1` [Compound 185, 2-((6-(bis(2-methoxyethyl)amino)-4,8-bis(4-methoxypiperidin-1-yl)pyrimido[5,4-d]pyrimi<din-2-yl)(2,3,4-trimethoxybenzyl)amino)ethanol]: the IC50 is < 100 nM. As for `COCCN(CCOC)c1nc(N2CCN(C)C(=O)C2)c2nc(N(CCOC)CCOC)nc(N3CCN(C)C(=O)C3)c2n1` [Compound 187, 4,4′-(2,6-bis(bis(2-methoxyethyl)amino)pyrimido[5,4-d]pyrimidine-4,8-diyl)bis(1-methylpiperazin-2-one)], the figure is 100 to 500 nM; as for `COCCN(CCOC)c1nc(N2CCN(C)C(=O)C2)c2nc(N(CCOC)CCOC)nc(N3CCS(=O)(=O)CC3)c2n1` [Compound 188, 4-(2,6-bis(bis(2-methoxyethyl)amino)-8-(1,1-dioxidothiomorpholino)pyrimido[5,4-d]pyrimidin-4-yl)-1-methylpiperazin-2-one], 100 to 500 nM; as for `COCCN(CCOC)c1nc(N2CC(O)(C(F)(F)F)C2)c2nc(N(CCOC)CCOC)nc(N3CCN(C)C(=O)C3)c2n1` [Compound 189, 4-(2,6-bis(bis(2-methoxyethyl)amino)-8-(3-hydroxy-3-(trifluoromethyl)azetidin-1-yl)pyrimido[5,4-d]pyrimidin-4-yl)-1-methylpiperazin-2-one], 100 to 500 nM. As to `COCCN(CCOC)c1nc(N2CCN(C)C(=O)C2)c2nc(N(CCOC)CCOC)nc(NCc3ccccc3)c2n1` [Compound 190, 4-(8-(benzylamino)-2,6-bis(bis(2-methoxyethyl)amino)pyrimido[5,4-d]pyrimidin-4-yl)-1-methylpiperazin-2-one], the IC50 is < 100 nM. As for `CCCN(C)c1nc(N(CCOC)CCOC)nc2c(N3CCN(C)C(=O)C3)nc(N(CCOC)CCOC)nc12` [Compound 191, 4-(2,6-bis(bis(2-methoxyethyl)amino)-8-(methyl(propyl)amino)pyrimido[5,4-d]pyrimidin-4-yl)-1-methylpiperazin-2-one], the figure is 100 to 500 nM; as for `COCCN(CCOC)c1nc(N2CC(O)(C(F)(F)F)C2)c2nc(N(CCOC)CCOC)nc(N3CCS(=O)(=O)CC3)c2n1` [Compound 192, 4-(2,6-bis(bis(2-methoxyethyl)amino)-8-(3-hydroxy-3-(trifluoromethyl)azetidin-1-yl)pyrimido[5,4-d]pyrimidin-4-yl)thiomorpholine 1,1-dioxide], 100 to 500 nM; as for `COCCN(CCOC)c1nc(N2CC(O)(C(F)(F)F)C2)c2nc(N(CCOC)CCOC)nc(N3CCn4ncnc4C3)c2n1` [Compound 193, 1-(2,6-bis(bis(2-methoxyethyl)amino)-8-(5,6-dihydro-[1,2,4]triazolo[1,5-a]pyrazin-7(8H)-yl)pyrimido[5,4-d]pyrimidin-4-yl)-3-(trifluoromethyl)azetidin-3-ol], 100 to 500 nM. `COCCN(CCOC)c1nc(N2CCC(F)(F)CC2)c2nc(N(CCOC)CCOC)nc(N3CCC(F)(F)CC3)c2n1` [Compound 195, 4,8-bis(4,4-difluoropiperidin-1-yl)-N2,N2,N6,N6-tetrakis(2-methoxyethyl)pyrimido[5,4-d]pyrimidine-2,6-diamine] gave an IC50 of 100 to 500 nM. Molecule `COCCN(CCOC)c1nc(N2CCN(c3ncn(C)n3)CC2)c2nc(N(CCOC)CCOC)nc(N3CCC(OC)CC3)c2n1` [Compound 196, N2,N2,N6,N6-tetrakis(2-methoxyethyl)-4-(4-methoxypiperidin-1-yl)-8-(4-(1-methyl-1H-1,2,4-triazol-3-yl)piperazin-1-yl)pyrimido[5,4-d]pyrimidine-2,6-diamine] displayed an IC50 of 100 to 500 nM.

For `COCCN(CCOC)c1nc(N2CCC(OC)CC2)c2nc(N(CCOC)CCC(N)=O)nc(N3CCC(OC)CC3)c2n1` [Compound 197, 3-((6-(bis(2-methoxyethyl)amino)-4,8-bis(4-methoxypiperidin-1-yl)pyrimido[5,4-d]pyrimidin-2-yl)(2-methoxyethyl)amino)propanamide], the IC50 lay within 500 to 1000 nM. As for `CCN1CCN(c2nc(N(CCOC)CCOC)nc3c(N4CCC(OC)CC4)nc(N(CCOC)CCOC)nc23)CC1=O` [Compound 198, 4-(2,6-bis(bis(2-methoxyethyl)amino)-8-(4-methoxypiperidin-1-yl)pyrimido[5,4-d]pyrimidin-4-yl)-1-ethylpiperazin-2-one], the figure is 100 to 500 nM; as for `CCOCCN(CCOCC)c1nc(N2CCN(C)C(=O)C2)c2nc(N(CCOCC)CCOCC)nc(N3CCC(OC)CC3)c2n1` [Compound 199, 4-(2,6-bis(bis(2-ethoxyethyl)amino)-8-(4-methoxypiperidin-1-yl)pyrimido[5,4-d]pyrimidin-4-yl)-1-methylpiperazin-2-one], < 100 nM.
